# Assay results from patent EP0324328B1, “Use of the N-n-butyl derivative of desoxynojirimycin in the manufacture of a medicament inhibiting HIV-Virus” (priority 1987, dated 1989).
# Where two headings read alike, the source gives them in different places.
# What was measured:
# HIV [1] = settings: result in words; see Fleet et al., FEBS Lett., In Press, 1988; cited from earlier work
# HIV [2] = settings: cited from earlier work; for effect upon HIV infectivity: Gruters et al., Nature 330, 74-77 (1987)
# T-45 cells = type: cell-based, human; settings: for Estimated Cell Growth Virus-uninfected Day 7: no-drug control 1.2x10^6; for cytotoxicity: non-infected cells, over the concentration range used (Fig. 3, Table 1), result in words
# Method: FIG. 1 is a schematic outline of the test procedure used to assess the cytotoxic effect of test compounds on T-cells either infected or non-infected with HIV and in parallel the HIV inhibitory activity of the test compounds. TCID is the tissue culture infectious dose. Cells were cultured in RPMI-1640 medium with 10% fetal calf serum containing 100 units/ml penicillin G and 100 µg/ml streptomycin.
# (§1) The assay was run in 96 well plastic microtiter plates in which 0.2 ml of culture medium containing 10^4 T-cells are seeded into each well. RPMI-1640 supplemented with 10% fetal calf serum was used as the culture medium. In each assay, 6 wells are used. Three (1-3) are infected with 10^4 TCID/well of HIV-1 or HIV-2 and to the other three (4-6) culture medium alone is added. Medium is changed at the same intervals for each test compound. The detailed assay procedure is illustrated in Figures 1 and 2.
# (§2) The efficacy of the test compounds used in this example was assessed as follows: 0.2 ml of culture medium containing 10^4 T-45 cells were transferred into each well of a 96-well flat-bottomed tissue-culture plastic plate and the cells were allowed to settle at 37°C (see Figure 1). After 4 hours the media were aspirated and replaced with media which contained the test compound. Following overnight incubation the media was aspirated and 10^4 TCID of virus (HIV-1 or HIV-2) was added to each well. Incubation was continued at 37°C in 5% CO2 for 1 hour. Thereafter, growth media containing the various compounds were added and incubation at 37°C was continued. On the fourth day the cell suspensions from each well were split and seeded into two new wells and 0.2 ml of fresh media with compounds was added. This was repeated on the seventh day. Cells were examined by microscopy during days 1 to 10 for the presence of syncytia, growth rate and the appearance of the cytopathic effect (CPE) (giant cells, pycnotic nuclei, loss of refractility). CPE (100%) was defined as no round, refractile, uniform cells remaining; only giant, ballooned pyknotic cells were present. The viability of HIV infected cultures was determined by a rough count/estimate of cells which underwent CPE in relation to round refractile uniform (normal) cells in a given culture.
# Quantitative data on the effect of the various compounds on the non-infected cells (cytotoxicity) was obtained by comparison of their growth rate to control cells not exposed to drugs (Table 1). […] In addition, the MOLT-4 cell line was also used.
# HIV [3] = experiment: Inhibition of HIV-associated cytopathic effect (CPE) in T-45 cells; type: cell-based; settings: HIV infected T-45 cells, various concentrations (Fig. 3); result in words
# Method: FIG. 3 is a graphical representation in which the inhibition of HIV associated CPE (―% CPE) reduction) and test compound-associated cytotoxicity (---% cell death) is plotted against the media concentration in mg/ml of several test compounds (drugs). The cell viability data was determined for non-HIV infected cells. The test compounds were the N-methyl-, N-ethyl-, and N-butyl derivatives of deoxynojirimycin (DNJ), castanospermine (Cast), N-(5-carboxymethyl-1-pentyl)-1,5-imino-L-fucitol (LFT) and 1,4-dideoxy-1,4-imino-L-arabinitol (LAB).
# After a suitable period of incubation, the cultures are scored for the presence of so-called syncytial cells (giant cells). Typical examples of such a test for the evaluation of inhibitors of HIV have been disclosed by Fung et al., Bio/Technology 5, 940-946 (1987); Tyms et al., Lancet, October 31, 1987, pp. 1025-1026; Gruters et al., Nature 330, 74-77 (1987); and Walker et al., Proc. Natl. Acad. Sci. USA 84, 8120-8124 (1987).
# as §2, with “culture. Cells in wells which were incubated with compounds which appeared to inhibit or reduce HIV replication and in which there was marked cell proliferation were either transferred to larger wells (of a 24-well plate) or divided in order to maintain an approximate constant cell density to promote continuous cell division.” for “culture.”
# HIV [4] = experiment: TCID titre of culture supernatants of T-45 cells infected with HIV, Fig. 4; type: cell-based; settings: for reduction of TCID titre of culture supernatants: T-45 cells infected with HIV, after 10 days in culture, result in words
# Method: FIG. 4 is a graphical representation in which the viral titer (determined as TCID) is plotted against the concentration in mg/ml of various of the test compounds (drugs) of FIG. 3 in panels (a) and (b).
# (§3) Cell free suspensions of the HIV were prepared from infected cultures. The concentration of infectious particles was estimated on end-point titration assay using serial ten-fold dilutions. The approximate number of infectious particles in each preparation was determined by the highest dilution which contains infectious HIV as determined by synctial formation, cytopathicity [Leonard et al., Proc. Natl. Acad. Sci. USA 85, 3570-3574 (1988); Barre-Sinoussi et al., Science 220, 868-870 (1983)] and HIV antigen [Karpas et al., Lancet 1, 695-697 (1985)] synthesis after 10 days of culture with 10^4 T-cells. This represents the concentration of infectious particles, herein defined as the tissue culture infectious dose (TCID).
# as §2, with “culture. Cells in wells which were incubated with compounds which appeared to inhibit or reduce HIV replication and in which there was marked cell proliferation were either transferred to larger wells (of a 24-well plate) or divided in order to maintain an approximate constant cell density to promote continuous cell division.” for “culture.”
# Quantitative data on the effect of the various compounds on the non-infected cells (cytotoxicity) was obtained by comparison of their growth rate to control cells not exposed to drugs (Table 1). Fig. 4 and Table 2 show the relation between the TCID titre of culture supernatants of T-45 cells infected with HIV after 10 days in culture and the concentration of drug. […] The inability of any of these drugs alone to totally reduce the TCID may be due to heterogeneity of virus production or spread. […] In addition, the MOLT-4 cell line was also used.
# HIV-2 = experiment: Virus titer (TCID) of HIV-2 infected T-cell cultures grown with test compound; type: cell-based; settings: control 10^6; for HIV-2 (TCID): Table 2, 0.10 mg/ml, 10^4 T-45 or MOLT-4 cells (identical results), 10^4 TCID inoculum, after day 10; for VIRUS TITER HIV-2: Table 3, Example 2, 0.1 mg/ml, T-45 and MOLT-4 cells, 10^4 TCID on 10^4 cells
# Method: as §3, §1
# as §2, with “culture. Cells in wells which were incubated with compounds which appeared to inhibit or reduce HIV replication and in which there was marked cell proliferation were either transferred to larger wells (of a 24-well plate) or divided in order to maintain an approximate constant cell density to promote continuous cell division.” for “culture.”
# (§4) That is, HIV-1 was first passaged in T-45 cells; likewise, HIV-1 was first passaged in MOLT-4 cells. The same passaging was done with HIV-2. The test compounds were used at a concentration of 0.1 mg/ml. 10^4 TCID of HIV-1 and separately of HIV-2 were used to infect 10^4 cells. Upon completion of the test, the virus titers were as follows: TABLE 3
# HIV-1 = experiment: Virus titer (TCID) of HIV-1 infected T-cell cultures grown with test compound; type: cell-based; settings: control 10^6; for HIV-1 (TCID): Table 2, 0.10 mg/ml, 10^4 T-45 or MOLT-4 cells (identical results), 10^4 TCID inoculum, after day 10; for VIRUS TITER HIV-1: Table 3, Example 2, 0.1 mg/ml, T-45 and MOLT-4 cells, 10^4 TCID on 10^4 cells
# Method: as §3, §1
# as §2, with “culture. Cells in wells which were incubated with compounds which appeared to inhibit or reduce HIV replication and in which there was marked cell proliferation were either transferred to larger wells (of a 24-well plate) or divided in order to maintain an approximate constant cell density to promote continuous cell division.” for “culture.”
# as §4
# [5] = system: B16-F10 murine melanoma cells; experiment: Incorporation of radiolabeled galactose, mannose, glucose and thymidine into cells; type: cell-based; settings: result in words
compound,measurement,setting,value
OC[C@@H]1[C@@H](O)[C@H](O)[C@@H](O)CN1Cc1ccccc1 [N-benzyl derivative],HIV inhibitory activity / effect on CPE,HIV [1],Neither the azofuranose analog of glucose nor the N-benzyl derivative were found to have an effect on CPE
"OC[C@H]1NC[C@@H](O)[C@@H](O)[C@@H]1O [DMJ, deoxymannojirimycin]",effect upon HIV infectivity,HIV [2],absence of effect
"O[C@H]1[C@H](O)[C@@H](O)CN2CC[C@H](O)[C@H]12 [Cast, castanospermine]",Estimated Cell Growth Virus-uninfected Day 7,T-45 cells; Dosage 0.02 mg/ml,1.2x10^6
same,Estimated Cell Growth Virus-uninfected Day 7,T-45 cells; Dosage 0.09 mg/ml,1.0x10^6
same,Estimated Cell Growth Virus-uninfected Day 7,T-45 cells; Dosage 0.18 mg/ml,8.0x10^5
same,Estimated Cell Growth Virus-uninfected Day 7,T-45 cells; Dosage 0.35 mg/ml,8.0x10^5
same,Estimated Cell Growth Virus-uninfected Day 7,T-45 cells; Dosage 0.70 mg/ml,Toxic
same,cytotoxicity,T-45 cells,cytotoxic
same,reduction in virion infectivity,"HIV [2]; background literature, b4",only a modest reduction in virion infectivity
same,HIV inhibitory activity / effect on CPE,HIV [1],inhibition of the cytopathic effect (CPE) by the α-glucosidase I inhibitor castanospermine is confirmed
same,effect on CPE formation,HIV [3],bell shaped dose-dependence
OC[C@H]1NCC[C@@H](O)[C@@H]1O [fagomine],HIV inhibitory activity / effect on CPE,HIV [1],no HIV inhibition was observed
"OC[C@@H]1NC[C@H](O)[C@H]1O [LAB, 1,4-dideoxy-1,4-imino-L-arabinitol]",reduction of TCID titre of culture supernatants,HIV [4],only able to reduce the TCID partially
same,Estimated Cell Growth Virus-uninfected Day 7,T-45 cells; Dosage 0.10 mg/ml,1.5x10^6
same,Estimated Cell Growth Virus-uninfected Day 7,T-45 cells; Dosage 0.25 mg/ml,1.5x10^6
same,Estimated Cell Growth Virus-uninfected Day 7,T-45 cells; Dosage 0.50 mg/ml,1.0x10^6
same,cytotoxicity,T-45 cells,showed no cytotoxicity over the concentration range used
same,HIV inhibitory activity / effect on CPE,HIV [1],strong HIV inhibitory activity
O[C@@H]1[C@@H](O)[C@@H](O)CN2CC[C@@H](O)[C@@H]12 [L-6-epicastanospermine],HIV inhibitory activity / effect on CPE,HIV [1],"neither the epimer L-1,6-diepicastanospermine nor the stereoisomer of castanospermine, L-6-epicastanospermine, were found to be inhibitory"
"OC[C@H]1NC[C@@H](O)[C@@H]1O [D-enantiomer of 1,4-dideoxy-1,4-imino-arabinitol, 1,4-dideoxy-1,4-imino-arabinitol]",HIV inhibitory activity / effect on CPE,HIV [1],very little effect on HIV replication
"OC[C@H]1NC[C@H](O)[C@@H](O)[C@@H]1O [DNJ, 1,5-dideoxy-1,5-imino-D-glucitol]",HIV-2 (TCID),HIV-2,10^5 TCID
same,VIRUS TITER HIV-2,HIV-2,10^5
same,reduction of TCID titre of culture supernatants,HIV [4],reduced the TCID only partially
same,Estimated Cell Growth Virus-uninfected Day 7,T-45 cells; Dosage 0.25 mg/ml,1.4x10^6
same,Estimated Cell Growth Virus-uninfected Day 7,T-45 cells; Dosage 0.50 mg/ml,1.4x10^6
same,effect upon HIV infectivity,HIV [2],positive effect
same,HIV-1 (TCID),HIV-1,10^5 TCID
same,VIRUS TITER HIV-1,HIV-1,10^5
same,galactose incorporation into the cells,[5]; radiolabeled galactose,substantially inhibited galactose incorporation into the cells at 1.0 mM or less
same,glucose utilization/inhibition,[5]; radiolabeled glucose,inhibited in a normal dose-response manner
same,mannose utilization,[5]; radiolabeled mannose,inhibited mannose utilization
same,^3H-Thymidine uptake into the cells,[5],inhibited incorporation at 2.0 mM
"N-(5-carboxymethyl-1-pentyl)-1,5-imino-L-fucitol [LFT]",reduction of TCID titre of culture supernatants,HIV [4],only able to reduce the TCID partially
"CCN1C[C@H](O)[C@@H](O)[C@H](O)[C@H]1CO [EtDNJ, N-ethyl-deoxynojirimycin]",HIV-2 (TCID),HIV-2,10^3 TCID
same,VIRUS TITER HIV-2,HIV-2,10^3
same,reduction of TCID titre of culture supernatants,HIV [4],reduced the TCID only partially
same,reduction of the virus titer / yield of infectious HIV,HIV [4]; at non-cytotoxic concentrations,two to four log-order of reduction
same,Estimated Cell Growth Virus-uninfected Day 7,T-45 cells; Dosage 0.01 mg/ml,1.2x10^6
same,Estimated Cell Growth Virus-uninfected Day 7,T-45 cells; Dosage 0.05 mg/ml,1.2x10^6
same,Estimated Cell Growth Virus-uninfected Day 7,T-45 cells; Dosage 0.10 mg/ml,1.3x10^6
same,cytotoxicity,T-45 cells,cytotoxic
same,HIV-1 (TCID),HIV-1,10^3 TCID
same,VIRUS TITER HIV-1,HIV-1,10^3
same,effect on CPE formation,HIV [3],bell shaped dose-dependence
"O[C@@H]1[C@@H](O)[C@@H](O)CN2CC[C@H](O)[C@@H]12 [L-1,6-diepicastanospermine]",HIV inhibitory activity / effect on CPE,HIV [1],"neither the epimer L-1,6-diepicastanospermine nor the stereoisomer of castanospermine, L-6-epicastanospermine, were found to be inhibitory"
